Reference: the supplement of paper PMC11061612

How the values were obtained:
[1] = system: HOP-62 (Lung Adenocarcinoma); assay: Bliss excess, mean over the matrix (fraction); higher = more synergy
In short: (§1)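 Bliss excess equals the observed combination effect minus the expected value EA + EB − EA·EB, where EA and EB are the effects of each agent alone. Combination Emax is the second-highest inhibition within the matrix. Inhibition was scaled from CellTiter-Glo 2.0 luminescence, with 0 set by vehicle wells and 1 by blank wells, after 72 hours of two-drug dosing of cells plated in 1536-well plates.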

[2] = system: JVM-3 (B-Cell Non-Hodgkin's Lymphoma); assay: as above
In short: as §1

[3] = system: NCI-H1915 (Non-Small Cell Lung Carcinoma); assay: as above
In short: as §1

[4] = system: OE19 (Esophageal Adenocarcinoma); assay: as above
In short: as §1

[5] = system: OSC-20 (Oral Cavity Carcinoma); assay: as above
In short: as §1

[6] = system: PWR-1E (Non-Cancerous); assay: as above
In short: as §1

[7] = system: SCC-15 (Oral Cavity Carcinoma); assay: as above
In short: as §1

[8] = system: SU8686 (Pancreatic Carcinoma); assay: as above
In short: as §1

[9] = system: TE-1 (Esophageal Squamous Cell Carcinoma); assay: as above
In short: as §1

[10] = system: VA-ES-BJ (Other Solid Carcinomas); assay: as above
In short: as §1

[11] = system: ACHN (Kidney Carcinoma); assay: combination Emax (second highest fraction inhibited in the dose matrix, 72 h); higher = more inhibition; extreme values may be limits of the assay
In short: as §1

[12] = system: BT-549 (Breast Carcinoma); assay: as above
In short: as §1

[13] = system: Caov-4 (Ovarian Carcinoma); assay: as above
In short: as §1

[14] = system: EFM-19 (Breast Carcinoma); assay: as above
In short: as §1

[15] = system: MIA-PaCa-2 (Pancreatic Carcinoma); assay: as above
In short: as §1

[16] = system: MLMA (Other Blood Carcinomas); assay: as above
In short: as §1

[17] = system: NB69 (Neuroblastoma); assay: as above
In short: as §1

[18] = system: SW13 (Other Solid Carcinomas); assay: as above
In short: as §1

[19] = system: TK10 (Kidney Carcinoma); assay: as above
In short: as §1

[20] = system: UACC-62 (Melanoma); assay: as above
In short: as §1

Compound | Bliss excess [1] | Bliss excess [2] | Bliss excess [3] | Bliss excess [4] | Bliss excess [5] | Bliss excess [6] | Bliss excess [7] | Bliss excess [8] | Bliss excess [9] | Bliss excess [10] | combination Emax [11] | combination Emax [12] | combination Emax [13] | combination Emax [14] | combination Emax [15] | combination Emax [16] | combination Emax [17] | combination Emax [18] | combination Emax [19] | combination Emax [20]
CN(CCO)CC[C@H](CSc1ccccc1)Nc1ccc(S(=O)(=O)NC(=O)c2ccc(N3CCC([C@@H](O)c4ccccc4-c4ccc(Cl)cc4)CC3)cc2)cc1S(=O)(=O)C(F)(F)F [AZD4320] + C1CN(CCC1(C(=O)N[C@@H](CCO)C2=CC=C(C=C2)Cl)N)C3=NC=NC4=C3C=CN4 [Capivasertib] (first compound max 1 µM, 7x7, partner max 3 µM) | -0.0414 | -0.0162 | -0.0459 | -0.0479 | -0.0513 | -0.0067 | -0.0606 | -0.0385 | -0.0292 | -0.0376 | 0.121 | 0.294 | 0.131 | 0.87 | 0.133 | 0.384 | 0.652 | 0.138 | 0.39 | 0.341
CN(CCO)CC[C@H](CSc1ccccc1)Nc1ccc(S(=O)(=O)NC(=O)c2ccc(N3CCC([C@@H](O)c4ccccc4-c4ccc(Cl)cc4)CC3)cc2)cc1S(=O)(=O)C(F)(F)F [AZD4320] + CC(=O)O[C@H]1C(=O)[C@@]2(C)[C@H]([C@H](OC(=O)c3ccccc3)[C@]3(O)C[C@H](OC(=O)[C@H](O)[C@@H](NC(=O)c4ccccc4)c4ccccc4)C(C)=C1C3(C)C)[C@]1(OC(C)=O)CO[C@@H]1C[C@@H]2O [Paclitaxel] (first compound max 1 µM, 7x7, partner max 3 µM) | – | – | – | – | – | – | – | – | – | – | 0.71 | 0.853 | 0.795 | 1 | 0.898 | – | 1 | 1 | 0.821 | 0.808
CN(CCO)CC[C@H](CSc1ccccc1)Nc1ccc(S(=O)(=O)NC(=O)c2ccc(N3CCC([C@@H](O)c4ccccc4-c4ccc(Cl)cc4)CC3)cc2)cc1S(=O)(=O)C(F)(F)F [AZD4320] + Cc1cc2ncnn2cc1Nc1ncc2c(n1)n(C1CCOCC1)c(=O)n2C [AZD7648] (first compound max 1 µM, 7x7, partner max 10 µM) | -0.0479 | -0.0214 | -0.0254 | -0.0219 | -0.0548 | -0.0352 | -0.0152 | -0.0355 | -0.0443 | -0.0364 | 0.162 | 0.178 | – | 0.735 | 0.178 | 0.474 | 0.801 | 0.193 | 0.444 | 0.248
CN(CCO)CC[C@H](CSc1ccccc1)Nc1ccc(S(=O)(=O)NC(=O)c2ccc(N3CCC([C@@H](O)c4ccccc4-c4ccc(Cl)cc4)CC3)cc2)cc1S(=O)(=O)C(F)(F)F [AZD4320] + Cn1cnc2c(F)c(Nc3ccc(Br)cc3Cl)c(C(=O)NOCCO)cc21 [Selumetinib] (first compound max 1 µM, 7x7, partner max 3 µM) | -0.0508 | -0.0225 | 0.0324 | -0.0202 | 0.0488 | 0.0024 | 0.042 | -0.0002 | 0.0819 | – | 0.346 | 0.327 | 0.617 | 0.753 | 0.61 | 0.496 | 0.998 | 0.544 | 0.402 | 0.868
CN(CCO)CC[C@H](CSc1ccccc1)Nc1ccc(S(=O)(=O)NC(=O)c2ccc(N3CCC([C@@H](O)c4ccccc4-c4ccc(Cl)cc4)CC3)cc2)cc1S(=O)(=O)C(F)(F)F [AZD4320] + Nc1ccn([C@@H]2O[C@H](CO)[C@@H](O)C2(F)F)c(=O)n1 [Gemcitabine] (first compound max 1 µM, 7x7, partner max 0.3 µM) | – | – | – | – | – | – | – | – | – | – | 0.969 | 0.199 | 0.685 | 0.702 | 0.771 | 0.896 | 0.997 | 0.927 | 0.301 | 0.72
Cc1cc2ncnn2cc1Nc1ncc2c(n1)n(C1CCOCC1)c(=O)n2C [AZD7648] + COc1cc([C@@H]2c3cc4c(cc3[C@@H](O[C@@H]3O[C@@H]5CO[C@@H](C)O[C@H]5[C@H](O)[C@H]3O)[C@H]3COC(=O)[C@H]23)OCO4)cc(OC)c1O [Etoposide] (first compound max 10 µM, 7x7, partner max 10 µM) | – | – | – | – | – | – | – | – | – | – | 0.772 | 0.736 | 0.744 | 0.615 | 0.945 | 0.816 | 0.946 | 0.86 | 0.592 | 0.642
Cc1nc(Nc2ncc(C(=O)Nc3c(C)cccc3Cl)s2)cc(N2CCN(CCO)CC2)n1 [Dasatinib] + CC(=O)Nc1cccc(-n2c(=O)n(C3CC3)c(=O)c3c(Nc4ccc(I)cc4F)n(C)c(=O)c(C)c32)c1 [Trametinib] (first compound max 2 µM, 7x7, partner max 1 µM) | -0.0824 | – | 0.0564 | -0.063 | -0.0148 | 0.0481 | -0.0213 | -0.0328 | -0.0067 | -0.033 | 0.749 | 0.436 | 0.743 | 0.199 | 0.894 | 0.675 | 1 | 0.716 | 0.766 | 0.888
